This note sets out measurements from patent US8962621B2 (Shanghai Institute of Pharmaceutical Industry, priority 2010, dated 2015).

The target of one experiment is 5-HT Transporter (hSERT) (Homo sapiens, UniProt P31645). As to the kind of experiment: Inhibition of [3H]-5-HT reuptake in HEK 293 cells stably expressing hSERT.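 For all read-outs here: compound preincubated 10 min at 30 °C, then 10 min uptake, filter-bound radioactivity counted by scintillation, inhibition relative to total (blank) minus non-specific (positive control) uptake.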 The settings on record: for inhibition at 10 µM: HEK293, read-out: 5-HT Reuptake Inhibition; for 5-HT Reuptake Inhibition: 10 μmol/L final concentration (b487 prints 0.1 mmol/L), HEK 293 hSERT cells, [3H]-5-HT.

In a further experiment the target is DA Transporter (hDAT) (Homo sapiens, UniProt Q01959). Kind of experiment: Inhibition of [3H]-DA reuptake in HEK 293 cells stably expressing hDAT. Particulars: for inhibition at 10 µM: HEK293, read-out: DA Reuptake Inhibition; for DA Reuptake Inhibition: 10 μmol/L final concentration (b487 prints 0.1 mmol/L), HEK 293 hDAT cells, [3H]-DA.
The next experiment has as its system male Kunming mice. As to the kind of experiment: Mice forced swimming test. It counts as in vivo. The settings on record: for effect in the forced swimming test (in words): 20 mg/kg; for IT (sec), immobility time: 20.0 mg/kg single intragastric administration, 1 h before test, last 4 min of 6 min, n=12. Here is the method:
Through intragastric administration, 10 mL·kg^−1 of each sample (physiological saline for the blank control group) is administrated. The mice are pre-screened for swimming one day before the actual test. The mouse is placed into water (25° C., 10 cm deep) in a glass tank (height 20 cm, diameter 14 cm) and forced to swim for 6 min. Those who stop swimming at around 70-160 s are chosen for the actual test which starts 24 h later. After 1 h of the administration, the forced swimming test is performed by placing the animal into the above-mentioned environment to swim for 6 min. The accumulative immobility time for the last 4 min is recorded. Data is statistically analyzed with t-test.

For another experiment, the target named is NA Transporter (hNAT) (Homo sapiens, UniProt P23975). Kind of experiment: Inhibition of [3H]-NA reuptake in HEK 293 cells stably expressing hNAT. Particulars: for inhibition at 10 µM: HEK293, read-out: NA Reuptake Inhibition; for NA Reuptake Inhibition: 10 μmol/L final concentration (b487 prints 0.1 mmol/L), HEK 293 hNAT cells, [3H]-NA.
In a further experiment the test system is male ICR mice. As to the kind of experiment: Mice tail suspension test. It counts as in vivo. The settings on record: for IT (sec), immobility time: 20.0 mg/kg single intragastric administration, 1 h before test, 4 min observation, n=12; for Improvement (%): 20.0 mg/kg single oral administration, versus blank control IT; for effect on immobility time in the tail suspension test (in words): 20 mg/kg, efficacy similar to Venlafaxine. The procedure: Through intragastric administration, 10 mL·kg^−1 of each sample (physiological saline for the blank control group) is administrated. After 1 h of the treatment, the mouse is held with a medical tape at a position around 2 cm from the tip of its tail and hung upside-down in the suspension cage with its head 5 cm away from the bottom of the cage. The observation starts right after the mouse is suspended for 2 min and continues for 4 min. The time during which the mouse is immobile (no struggling or only tiny movements of its body/limbs) in this 4 min is accumulated (IT, immobility time). The percentage of the improvement is calculated according to the equation: Improvement %=[IT (blank control group)−IT (compound treatment group)]/IT (blank control group)×100%

Molecules are shown by their SMILES.

5-HT Transporter (hSERT), sequence (P31645 whole entry): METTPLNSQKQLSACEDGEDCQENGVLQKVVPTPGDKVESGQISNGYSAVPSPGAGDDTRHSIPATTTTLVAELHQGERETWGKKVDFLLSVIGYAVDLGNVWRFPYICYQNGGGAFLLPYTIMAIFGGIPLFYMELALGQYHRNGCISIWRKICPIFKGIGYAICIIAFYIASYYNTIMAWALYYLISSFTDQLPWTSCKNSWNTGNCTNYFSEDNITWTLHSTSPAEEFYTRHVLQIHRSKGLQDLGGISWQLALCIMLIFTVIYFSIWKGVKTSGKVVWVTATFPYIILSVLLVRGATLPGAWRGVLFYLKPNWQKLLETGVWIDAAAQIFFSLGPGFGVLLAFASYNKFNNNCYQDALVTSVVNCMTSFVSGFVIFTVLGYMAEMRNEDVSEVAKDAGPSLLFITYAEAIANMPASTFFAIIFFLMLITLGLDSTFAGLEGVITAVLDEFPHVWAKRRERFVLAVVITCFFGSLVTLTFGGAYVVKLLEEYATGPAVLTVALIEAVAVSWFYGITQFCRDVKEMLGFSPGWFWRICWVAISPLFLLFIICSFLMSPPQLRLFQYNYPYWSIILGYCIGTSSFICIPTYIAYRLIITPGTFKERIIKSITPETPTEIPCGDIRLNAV
DA Transporter (hDAT), sequence (Q01959 whole entry): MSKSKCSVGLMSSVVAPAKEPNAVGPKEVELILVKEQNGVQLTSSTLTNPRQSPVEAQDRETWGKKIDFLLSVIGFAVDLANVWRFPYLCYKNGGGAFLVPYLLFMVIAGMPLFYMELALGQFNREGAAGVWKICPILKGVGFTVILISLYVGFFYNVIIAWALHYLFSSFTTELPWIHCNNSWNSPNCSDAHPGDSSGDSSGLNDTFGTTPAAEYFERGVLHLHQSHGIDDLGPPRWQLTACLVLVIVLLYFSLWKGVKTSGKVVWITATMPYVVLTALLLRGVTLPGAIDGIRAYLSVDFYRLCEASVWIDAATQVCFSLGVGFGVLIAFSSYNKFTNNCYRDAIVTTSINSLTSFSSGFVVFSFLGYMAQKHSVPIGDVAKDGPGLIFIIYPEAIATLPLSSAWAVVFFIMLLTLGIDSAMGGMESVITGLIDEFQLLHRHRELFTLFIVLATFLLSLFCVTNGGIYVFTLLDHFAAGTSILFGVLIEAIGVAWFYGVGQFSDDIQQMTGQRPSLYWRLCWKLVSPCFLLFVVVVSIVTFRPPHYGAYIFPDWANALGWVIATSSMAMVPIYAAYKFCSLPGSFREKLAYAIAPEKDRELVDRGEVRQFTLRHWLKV
NA Transporter (hNAT), sequence (P23975 whole entry): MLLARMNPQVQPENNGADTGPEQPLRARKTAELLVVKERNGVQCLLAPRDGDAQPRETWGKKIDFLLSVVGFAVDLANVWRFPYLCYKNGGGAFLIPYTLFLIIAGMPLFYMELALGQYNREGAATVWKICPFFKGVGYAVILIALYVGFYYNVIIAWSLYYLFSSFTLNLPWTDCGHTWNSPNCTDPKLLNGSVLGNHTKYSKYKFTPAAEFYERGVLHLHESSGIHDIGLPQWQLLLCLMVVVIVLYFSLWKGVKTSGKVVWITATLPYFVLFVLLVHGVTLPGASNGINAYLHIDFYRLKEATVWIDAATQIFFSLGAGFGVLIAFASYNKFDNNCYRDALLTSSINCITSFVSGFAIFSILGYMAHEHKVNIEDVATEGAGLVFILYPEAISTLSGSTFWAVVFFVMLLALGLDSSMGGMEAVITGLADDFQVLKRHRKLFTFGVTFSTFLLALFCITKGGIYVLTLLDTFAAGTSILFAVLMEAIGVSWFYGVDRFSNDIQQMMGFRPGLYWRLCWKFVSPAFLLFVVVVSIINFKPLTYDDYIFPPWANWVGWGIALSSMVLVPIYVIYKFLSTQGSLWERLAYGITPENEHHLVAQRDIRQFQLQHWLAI

On to `COc1ccc2cc(C(CCN(C)C)N3CCCC3)ccc2c1Cl` (stereo not drawn) [VI-36, N,N-dimethyl-3-(5-chloro-6-methoxynaphthalen-2-yl)-3-(pyrrolidin-1-yl)-propylamine], for which the inhibition at 10 µM at 5-HT Transporter (hSERT) worked out at 98.3%. The inhibition at 10 µM at DA Transporter (hDAT) was found to be 87.2%. In addition, in the experiment with male Kunming mice, the “effect in the forced swimming test (in words)” value is “significant difference from that of the blank control” and the “IT (sec), immobility time” value was determined as 90.6 ± 48.0 s. In addition, the inhibition at 10 µM on NA Transporter (hNAT) is 97.8%. In the experiment with male ICR mice, the “IT (sec), immobility time” value is 39.91 ± 18.35 s; the “Improvement (%)” value was 59.29%; the “effect on immobility time in the tail suspension test (in words)” value (from here on “effect on immobility time”) was “significant reduction in the immobility time”.

Take `CN(C)CCC(c1cc2ccccc2s1)N1CCCC1` (stereo not drawn) [VI-19, N,N-dimethyl-3-(benzothiophen-2-yl)-3-(pyrrolidin-1-yl)-propylamine]: the inhibition at 10 µM at 5-HT Transporter (hSERT) amounted to 95.3%. Besides, the inhibition at 10 µM at DA Transporter (hDAT) was found to be 75.6%. Further, in the experiment on male Kunming mice, the “effect in the forced swimming test (in words)” value was “significant reduction in the immobility time” and the “IT (sec), immobility time” value worked out at 60.7 ± 26.7 s. At NA Transporter (hNAT), the inhibition at 10 µM worked out at 91.2%. Moreover, in the experiment with male ICR mice, the “IT (sec), immobility time” value was 50.28 ± 21.30 s; the “Improvement (%)” value stood at 49.31%; the “effect on immobility time” value is “significant reduction in the immobility time”.

With `CN(C)CCC(c1csc2ccccc12)N1CCCC1` (stereo not drawn) [VI-13, N,N-dimethyl-3-(benzothiophen-3-yl)-3-(pyrrolidin-1-yl)-propylamine], the inhibition at 10 µM at 5-HT Transporter (hSERT) was 96.6%; at DA Transporter (hDAT), 96.9%; at NA Transporter (hNAT) it was 98.8%. Besides, the “effect in the forced swimming test (in words)” value with male Kunming mice is listed as “significant reduction in the immobility time”. Besides, the “IT (sec), immobility time” value worked out at 44.9 ± 53.7 s with male Kunming mice and 38.29 ± 23.76 s with male ICR mice. Moreover, the “Improvement (%)” value with male ICR mice was 61.40%. Moreover, the “effect on immobility time” value in the experiment with male ICR mice is “significant reduction in the immobility time”.

For the compound `CN(C)CCC(c1c[nH]c2ccccc12)N1CCOCC1` (stereo not drawn) [VI-31, N,N-dimethyl-3-(indol-3-yl)-3-morpholinyl-propylamine], on 5-HT Transporter (hSERT), the “inhibition effect towards the reuptake of 5-HT (in words)” value (“inhibition effect towards the reuptake” below) is reported as “relatively strong inhibition effect” and the “5-HT Reuptake Inhibition” value stood at 87.9%. For the same compound, the “DA Reuptake Inhibition” value on DA Transporter (hDAT) amounted to 75.6%. Moreover, in the experiment with male Kunming mice, the “effect in the forced swimming test (in words)” value is given as “significant difference from that of the blank control” and the “IT (sec), immobility time” value was 99.7 ± 43.7 s. In addition, the “NA Reuptake Inhibition” value at NA Transporter (hNAT) amounted to 88.1%. Moreover, in the experiment with male ICR mice, the “IT (sec), immobility time” value was found to be 78.36 ± 23.00 s and the “Improvement (%)” value is given as 20.84%.

As for `CN(C)CCC(c1cc2ccccc2s1)N1CCCCC1` (stereo not drawn) [VI-22, N,N-dimethyl-3-(benzothiophen-2-yl)-3-piperidinyl-propylamine], on 5-HT Transporter (hSERT), the “inhibition effect towards the reuptake” value is “relatively strong inhibition effect” and the “5-HT Reuptake Inhibition” value is given as 96.3%. Besides, at DA Transporter (hDAT), the “DA Reuptake Inhibition” value amounted to 96.5%. In the experiment on male Kunming mice, the “effect in the forced swimming test (in words)” value is reported as “significant reduction in the immobility time” and the “IT (sec), immobility time” value turned out to be 75.4 ± 40.3 s. Further, the “NA Reuptake Inhibition” value at NA Transporter (hNAT) is 99.8%. In addition, in the experiment on male ICR mice, the “IT (sec), immobility time” value was 65.25 ± 28.39 s and the “Improvement (%)” value came out at 34.22%.

`CN(C)CCCC(c1csc2ccccc12)N1CCOCC1` (stereo not drawn) [VI-46, N,N-dimethyl-4-(benzothiophen-3-yl)-4-morpholinyl-butylamine]: at 5-HT Transporter (hSERT), the “inhibition effect towards the reuptake” value is “relatively strong inhibition effect” and the “5-HT Reuptake Inhibition” value is 92.3%. Also, at DA Transporter (hDAT), the “DA Reuptake Inhibition” value came to 78.0%. In the experiment with male Kunming mice, the “effect in the forced swimming test (in words)” value is “significant difference from that of the blank control” and the “IT (sec), immobility time” value was determined as 97 ± 48.5 s. Further, at NA Transporter (hNAT), the “NA Reuptake Inhibition” value was determined as 89.5%. For the same compound, in the experiment on male ICR mice, the “IT (sec), immobility time” value stood at 86.19 ± 35.87 s and the “Improvement (%)” value was found to be 13.01%.
